The source of these data is US9402820B2, “Use of pyruvate or succinate to enhance the efficacy of a hypoxia activated prodrug for the treatment of tumors” (THE UNITED STATES OF AMERICA AS REPRESENTED BY THE …, priority 2011, dated 2016).

Test [1] has as its system HT29 (human colon cancer) tumors. The test is described as follows: HT29 tumor growth with TH-302 alone or in combination with pyruvate. Particulars: TH-302 100 mg/kg/day i.p., pyruvate 1.15 mmol/kg/day i.v. 30 min before, daily for 3 days. The format is in vivo. How it is done: (§1) Mouse legs bearing tumors were prepared by subcutaneously injecting 5×10^5 SCCVII (mouse squamous cell carcinoma) cells or 1×10^6 HT29 (human colon cancer) cells to the hind leg of C3H or athymic nude mice, respectively. When tumor size became 400-500 mm^3, treatments were initiated. Mice were treated daily for 3 days with hypoxia-activated prodrug TH-302 (100 mg/kg/day, i.p.) alone, pyruvate (1.15 mmol/kg/day, i.v.) alone, or TH-302 injection 30 min. after pyruvate injection. Treatments were started on day 7 (SCCVII; FIG. 6A) or day 8 (HT29; FIG. 6B). […] Tumor growth (volume/size in mm^3) was measured daily by caliper.

Test [2] relates to SCCVII (mouse squamous cell carcinoma) tumors. The test is described as follows: SCCVII tumor growth with TH-302 alone, pyruvate alone or in combination. The format is in vivo. Particulars: daily for 3 days. How it is done:
as §1

In test [3] the test system is SCCVII solid tumors. Description: EPR imaging (EPRI) of tumor pO2 after i.v. pyruvate in SCC tumor-bearing mice. The class given is in vivo, mouse. The note with it: for Median tumor pO2 value: before injection 11.8±1.3; for Percentage of hypoxic region (pO2<10 mmHg) in the tumors: before injection 39.7±9.8. How it is done: All animal experiments were carried out in compliance with the Guide for the care and use of laboratory animal resources (National Research Council, 1996) and approved by the National Cancer Institute Animal Care and Use Committee. Female C3H/Hen mice were supplied by the Frederick Cancer Research Center, Animal Production (Frederick, Md.). SCCVII solid tumors were formed by injecting 5×10^5 SCC cells subcutaneously into the right hind leg of C3H mice. Body weight measured before the experiments was 21-27 g. In EPRI and MRI measurements, mice were anesthetized by isoflurane (4% for induction and 2% for maintaining anesthesia) in medical air (750 mL/min) and positioned prone with their tumor-bearing legs placed inside the resonator. During the measurements, the breathing rate of the mice was monitored with a pressure transducer (SA Instruments Inc.) and maintained at 60±10 breaths per minute. Core body temperature was also monitored with a non-magnetic rectal temperature probe (FISO) and maintained at 37±1° C. with a flow of warm air. For administration of TAM and [1-^13C]pyruvate solution, a 30-gauge needle was cannulated into the tail vein and extended using polyethylene tubing (PE-10).
Technical details of the EPR scanner operating at 300 MHz, data acquisition based on the single-point imaging (SPI) modality, image reconstruction, and the oxygen mapping procedure were described previously (Matsumoto et al., Magn Reson Med, 55:1157-1163, 2006; and Matsumoto et al., J Clin Invest, 118:1965-1973, 2008). Isotonic [1-^13C]pyruvate solution (pH 7.4) was prepared by dissolving 30 μL of [1-^13C]pyruvic acid in 4.5 mL of alkaline solution containing 100 mg/L EDTA. After the mouse was placed in the resonator, TAM (OX063, GE Healthcare) was injected intravenously through the cannula placed in the tail vein. TAM was given as a 1.125 mmol/kg bolus followed by 0.04 mmol/kg/min continuous injection. After acquiring the first EPR data set, 1.15 mmol/kg bolus (300 μL of 96 mM) [1-^13C]pyruvate solution was injected intravenously through the cannula. EPRI measurements were carried out 30 minutes and 1 hour after [1-^13C]pyruvate injection. Then, the mouse was released. The mouse was anesthetized and canulated again, 1.125 mmol/kg TAM was injected to the mouse, and EPRI measurement was carried out 5 hours after the [1-^13C]pyruvate injection.
EPR signals were collected following the RF excitation pulses (60 ns, 80 W, 70° flip angle) using an analog digital converter (200 Msamples/s). EPR measurements were started 3 minutes after TAM injection, and it took 9 minutes to obtain a data set for a 3D image. The repetition time (TR) was 6.0 μs. The FIDs (free induction decays) were collected under a nested looping of the x, y, z gradients and each time point in the FID underwent phase modulation enabling 3D spatial encoding. In order to get reproducible values of T2* and to retain a more or less uniform image resolution, a set of 3 gradients was used, and data for corresponding images were collected in an interleaved fashion (Matsumoto et al., Magn Reson Med, 55:1157-1163, 2006). If the power spectrum of the pulse is uniform throughout the k-space for all the gradients used, the spatial resolution is simply defined by FOV (field of view) and the number of k-samples (elements in k-space).
Anatomical images of the tumor-bearing leg were obtained using 7 T MRI after the EPRI measurements. […] An identical parallel coil resonator (17 mm inner diameter and 25 mm long) with Q switch was used for both EPRI and MRI operating at 300 MHz (Matsumoto et al., J Clin Invest, 118:1965-1973, 2008).
MRI scans were conducted using a 7 T scanner controlled with ParaVision 5.0 (Bruker BioSpin MRI GmbH). […]

In a further test the test system is SCC tumor. Description: Tumor growth after X-irradiation (12 Gy) with [1-13C]pyruvate injection. The class given is in vivo, mouse. Particulars: X-irradiation 12 Gy 30 minutes after [1-13C]pyruvate injection; X-irradiation without pyruvate 6-7 days. An excerpt: Mice were fixed in the specially designed jig for X-irradiation, by which mice were restricted from moving without anesthesia. X-irradiation (12 Gy) was delivered to tumor-bearing leg 6 days after SCC tumor implantation using a XRAD-320 (Precision X-ray Inc.).
Hypoxia is a critical factor that determines tumor resistance to radiotherapy and some kinds of chemotherapy. Although the pyruvate-induced hypoxia is transient, the decrease in oxygen concentration may limit the efficacy of cancer therapy, if the cancer treatments are provided immediately after MRI with hyperpolarized [1-^13C]pyruvate. To elucidate the effect of exogenously injected pyruvate on radiotherapy, tumor growth was monitored after X-irradiation with and without [1-^13C]pyruvate injection (FIG. 4). X-irradiation (12 Gy) without pyruvate administration suppressed the tumor growth for 6-7 days compared with non-treated control group which received neither X-irradiation nor pyruvate administration. […] Secondary mechanisms such as activation of hypoxia inducible transcription factor-1 signaling during the pyruvate-induced transient hypoxia might partially contribute to the long lasting effect of pyruvate on radiotherapy in addition to the direct effect of oxygen concentration at the time of radiation. […]

The subject of test [4] is SCCVII solid tumors. Description: Immunohistochemical analysis with hypoxia marker pimonidazole in SCC tumors. The format is in vivo, mouse. Particulars: control mice 21.1±1.4, n=5. How it is done: A hypoxia marker, pimonidazole, was given to tumor-bearing mice intravenously 30 minutes before excising tumors. The mice were euthanized, and tumor tissues were removed from mice. The tumor tissues were fixed with 4% paraformaldehyde and frozen using ultracold ethanol. The frozen tumors were sectioned to 10 μm thick using a cryostat, and the sections were thaw-mounted on glass slides. After blocking non-specific binding sites with Protein Block Serum-Free reagent (Dako North America Inc., Carpinteria, Calif.), the slides were covered by rabbit anti-pimonidazole antisera (Natural Pharmacia International, Inc., Burlington, Mass.; 1:250) overnight at 4° C. The sections were incubated with Alexa Fluor 555 anti-rabbit secondary antibody (Invitrogen, Carlsbad, Calif.; 1:500). Then they were mounted on Prolong Gold antifade reagent with DAPI (Invitrogen). Fluorescence microscopic observation was performed using an Axiovert 200 inverted fluorescent microscope (Carl Zeiss), and images of tissues were captured using Image-Pro Plus Ver. 4.0 imaging software. The pimonidazole positive area was quantified using Image J software.

[5] abbreviates: SCCVII, TH-302 100 mg/kg/day i.p., pyruvate 1.15 mmol/kg/day i.v. 30 min before.

Regarding `Cn1c(COP(=O)(NCCBr)NCCBr)cnc1[N+](=O)[O-]` [TH-302], in test [1], the “Period of time until tumor becomes 3 times original tumor size” value came to 6.8 days and the “Period of time until tumor becomes 4 times original tumor size” value amounted to 8.4 days. In test [2] (setting [5]), the “Period of time until tumor becomes 2 times original tumor size” value stood at 3.4 days and the “Period of time until tumor becomes 3 times original tumor size” value is 5.4 days. Besides, the “effect on SCCVII tumor growth” value in test [2] (treatment starting 7 days post-tumor implantation) is reported as “minor or small effect”.
On to `CC(=O)C(=O)O` [pyruvate, 2-oxopropanoate], for which the “median pO2 value in tumor” value in the test on SCCVII solid tumors [3] (1-2 hours after hyperpolarized [1-13C]pyruvate 1.15 mmol/kg i.v. bolus, control tumor group 11.7±0.7, mean±SEM, n=4) is given as 9.2±1.1 mmHg. Moreover, the “hypoxic fraction (pixels with pO2<10 mm Hg)” value in the test with SCCVII solid tumors [3] (1-2 hours after hyperpolarized [1-13C]pyruvate 1.15 mmol/kg i.v., control tumors 37.1±5.6, mean±SEM, n=4) is 58.5±10.2%. Also, the “Median tumor pO2 value” came out at 5.8±0.6 mmHg in the test with SCCVII solid tumors [3] (30 minutes after [1-13C]pyruvate 1.15 mmol/kg i.v., n=4); 7.7±0.6 mmHg with SCCVII solid tumors [3] (1 hour after [1-13C]pyruvate 1.15 mmol/kg i.v., n=4); 11.6±1.2 mmHg in the test on SCCVII solid tumors [3] (5 hours after [1-13C]pyruvate 1.15 mmol/kg i.v., n=4). Also, the “decrease of tumor pO2” value in the test on SCCVII solid tumors [3] (30 minutes after half dose (0.58 mmol/kg b. w.)) was determined as 32%. The entries for the “Percentage of hypoxic region (pO2<10 mmHg) in the tumors” value with SCCVII solid tumors [3] (30 minutes after pyruvate 1.15 mmol/kg i.v.), in the test with SCCVII solid tumors [3] (1 hour after pyruvate 1.15 mmol/kg i.v.) and in the test on SCCVII solid tumors [3] (5 hours after pyruvate 1.15 mmol/kg i.v.) were 68.5±3.0%, 63.8±2.6% and 43.9±5.7%, respectively. For the same compound, the “delay in tumor growth” value in the test with SCC tumor lay in the range of 3 to 4 days. For the same compound, the “Pimonidazole positive area in tumors” value in the test on SCCVII solid tumors [4] (1 hour after [1-13C]pyruvate injection) was 29.5±2.9%; in the test on SCCVII solid tumors [4] (5 hours after [1-13C]pyruvate injection), 18.7±1.8%.
